Values quoted from earlier work in patent US20190279737A1, “METHOD OF DISCOVERING NEW DRUG CANDIDATE TARGETING DISORDER-TO-ORDER TRANSITION REGION AND APPARATUS FOR DISCOVERING NEW DRUG CANDIDATE” (INDUSTRY-UNIVERSITY COOPERATION FOUNDATION HANYANG …, priority 2016, published 2019).

Molecular target: Myc (Homo sapiens, UniProt P01106)
Conditions: Follis et al. 2008

Myc, sequence (P01106 16-454, species assumed): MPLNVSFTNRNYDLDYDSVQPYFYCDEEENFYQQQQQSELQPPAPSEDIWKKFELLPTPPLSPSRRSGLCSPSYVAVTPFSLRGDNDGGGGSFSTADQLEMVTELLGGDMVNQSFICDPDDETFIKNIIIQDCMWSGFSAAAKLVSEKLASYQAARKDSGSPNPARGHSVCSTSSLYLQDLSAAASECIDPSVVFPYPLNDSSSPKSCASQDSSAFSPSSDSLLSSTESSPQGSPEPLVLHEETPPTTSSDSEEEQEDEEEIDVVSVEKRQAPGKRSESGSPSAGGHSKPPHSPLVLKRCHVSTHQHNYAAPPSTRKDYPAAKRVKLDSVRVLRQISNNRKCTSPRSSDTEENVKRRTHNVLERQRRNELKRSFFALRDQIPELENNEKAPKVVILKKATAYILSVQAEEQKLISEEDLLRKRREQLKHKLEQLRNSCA

CCc1ccc(/C=C2/SC(=S)NC2=O)cc1 [10058-F4]
region of Myc bound: specifically binds to a 402-412 region of Myc
